Data on three compounds can be found in patent US7582762B2, “Salt and crystalline forms of (2R)-anti-5-{3-[4-(10,11-difluoromethanodibenzosuber-5-YL)piperazin-1-YL]-2-hydroxypropoxy}quinoline” (Eli Lilly and Company, priority 2001, dated 2009).

Data set [1] is described as follows: Moisture sorption profile over relative humidity. Type of data set: physicochemical. The following applies: over a wide range of relative humidity; compared with trihydrochloride salt/crystal (Form I).
Data set [2] in a line: Incorporation of organic solvents into the crystal lattice. The following applies: compared with trihydrochloride salt/crystal (Form I). The class given is physicochemical.
The nature of data set [3]: Thermodynamic stability of salt and crystal forms. Conditions: for thermodynamic stability relative to trihydrochloride (Form I): compared with trihydrochloride salt/crystal (Form I), hydrochloride.

The structures appear in SMILES notation. Entries after “also recorded” stand apart in the source; their conditions may differ. Counter-ions that a name gives are not always drawn.

Consider `Cl.Cl.Cl.Cl.Cl.O[C@@H](COc1cccc2ncccc12)CN1CCN(C2c3ccccc3C3C(c4ccccc42)C3(F)F)CC1.O[C@@H](COc1cccc2ncccc12)CN1CCN(C2c3ccccc3C3C(c4ccccc42)C3(F)F)CC1` (stereo partly drawn) [2.5 salt, (2R)-anti-5-{3-[4-(10,11-difluoromethanodibenzosuber-5-yl)piperazin-1-yl]-2-hydroxypropoxy}quinoline 2.5 hydrochloride], for which the “moisture sorption (water sorbed)” value in data set [1] is given as “sorb less water overall over a wide range of relative humidity”. For the same compound, the “incorporation of organic solvents” value in data set [2] was “do not incorporate organic solvents as readily as the trihydrochloride salt and crystal”.

Regarding `O[C@@H](COc1cccc2ncccc12)CN1CCN([C@@H]2c3ccccc3[C@@H]3[C@H](c4ccccc42)C3(F)F)CC1` [Form II, (2R)-anti-5-{3-[4-(10,11-difluoromethanodibenzosuber-5-yl)piperazin-1-yl]-2-hydroxypropoxy}quinoline 2.5 hydrochloride], the “moisture sorption (water sorbed)” value in data set [1] is recorded as “sorb less water overall over a wide range of relative humidity”. Further, in data set [2] (hydrochloride), the “incorporation of organic solvents” value is “do not incorporate organic solvents as readily as Form I; also recorded: do not incorporate organic solvents as readily as the trihydrochloride salt and crystal”. Besides, the “thermodynamic stability relative to trihydrochloride (Form I)” value in data set [3] was “thermodynamically more stable than Form I; also recorded: thermodynamically more stable than the trihydrochloride salt and crystal”. The most stable form entry in data set [3] (organic solutions and solid state at ambient temperature/relative humidity) was “most stable in organic solutions and in the solid state at ambient temperature/relative humidity”.

For the compound `O[C@@H](COc1cccc2ncccc12)CN1CCN([C@@H]2c3ccccc3[C@@H]3[C@H](c4ccccc42)C3(F)F)CC1` [Form III, (2R)-anti-5-{3-[4-(10,11-difluoromethanodibenzosuber-5-yl)piperazin-1-yl]-2-hydroxypropoxy}quinoline 2.5 hydrochloride], the “moisture sorption (water sorbed)” value in data set [1] is “sorb less water overall over a wide range of relative humidity”. In addition, the “incorporation of organic solvents” value in data set [2] (hydrochloride) was “do not incorporate organic solvents as readily as Form I; also recorded: do not incorporate organic solvents as readily as the trihydrochloride salt and crystal”. Besides, the most stable form entry in data set [3] (aqueous and acidic media) is “most stable in aqueous and acidic media”. Further, the “thermodynamic stability relative to trihydrochloride (Form I)” value in data set [3] was “thermodynamically more stable than Form I; also recorded: thermodynamically more stable than the trihydrochloride salt and crystal”.
